Data as given in paper PMC6959841, “Kinetic Optimization of Lysine-Targeting Covalent Inhibitors of HSP72” (Journal of Medicinal Chemistry, 2019).
“Also recorded” adds a separate entry of the source.

Assays:
HSP72-NBD [1] = target: T1, HSP72-NBD (Homo sapiens, UniProt P0DMV8); assay: HSP72-NBD nucleotide-derived FP-assay (probe displacement, App. Ki, time-dependent); assay type: binding
HSP72-NBD [2] = target: T1, HSP72-NBD; assay: Covalent (kinetic) FP-assay; assay type: binding
HSP72-NBD [3] = target: T1, HSP72-NBD; assay: Intact-protein mass spectrometry of covalent adduct formation; assay type: binding; details: 20 μM compound, 2.0 μM HSP72-NBD, 21 °C
HSP72 = details: read-out: KM for ATP; cited from earlier work
HSP72-NBD [4] = target: T1, HSP72-NBD; details: even at high concentrations; cited from earlier work

T1 sequence (P0DMV8 2-386 limits assumed): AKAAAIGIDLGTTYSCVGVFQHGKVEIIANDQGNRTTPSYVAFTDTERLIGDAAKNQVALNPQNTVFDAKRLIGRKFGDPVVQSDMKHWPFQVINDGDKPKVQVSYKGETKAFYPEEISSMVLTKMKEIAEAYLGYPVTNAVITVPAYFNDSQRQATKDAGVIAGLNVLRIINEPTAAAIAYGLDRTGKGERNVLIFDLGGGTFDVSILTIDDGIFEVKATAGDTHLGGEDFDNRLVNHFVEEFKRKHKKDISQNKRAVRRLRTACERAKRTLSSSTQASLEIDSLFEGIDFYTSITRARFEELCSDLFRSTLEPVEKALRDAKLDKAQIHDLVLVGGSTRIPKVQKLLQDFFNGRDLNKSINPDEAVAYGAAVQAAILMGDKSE

N#Cc1ccc(C(=O)OC[C@H]2O[C@@H](n3c(NCc4ccc(Cl)cc4)nc4c(N)ncnc43)[C@H](O)[C@@H]2O)cc1 [Compound 15, ((2R,3S,4R,5R)-5-(6-amino-8-((4-chlorobenzyl)amino)-9H-purin-9-yl)-3,4-dihydroxytetrahydrofuran-2-yl)methyl 4-cyanobenzoate]
fold weaker/less potent than tight-binding reversible MMP 9 (HSP72-NBD [1]): > 18 fold

Nc1ncnc2c1ncn2[C@@H]1O[C@H](COC(=O)c2ccc(S(=O)(=O)F)cc2)[C@@H](O)[C@H]1O [Compound 16, ((2R,3S,4R,5R)-5-(6-amino-9H-purin-9-yl)-3,4-dihydroxytetrahydrofuran-2-yl)methyl 4-(fluorosulfonyl)benzoate]
fold weaker activity / decrease in covalent efficiency vs TCI 14 (HSP72-NBD [2]): 70 fold

Nc1ncnc2c1nc(NCc1ccc(Cl)cc1)n2[C@@H]1O[C@H](COCc2ccc(C(=O)Oc3ccc(F)cc3)cc2)[C@@H](O)[C@H]1O [Compound 8, 4-fluorophenyl 4-((((2R,3S,4R,5R)-5-(6-amino-8-((4-chlorobenzyl)amino)-9H-purin-9-yl)-3,4-dihydroxytetrahydrofuran-2-yl)methoxy)methyl)benzoate]
covalent-bond formation by intact-protein MS (HSP72-NBD [3]): no evidence of specific and selective covalent-bond formation

CC1(C)O[C@@H]2[C@H](O1)[C@@H](COC(=O)c1ccc(S(=O)(=O)F)cc1)O[C@H]2n1c(NCc2ccc(Cl)cc2)nc2c(N)ncnc21 [Compound 13, ((3aR,4R,6R,6aR)-6-(6-amino-8-((4-chlorobenzyl)amino)-9H-purin-9-yl)-2,2-dimethyltetrahydrofuro[3,4-d][1,3]dioxol-4-yl)methyl 4-(fluorosulfonyl)benzoate]
covalent-bond formation by intact-protein MS (HSP72-NBD [3]): no reaction; also recorded: no reactivity | reversible binding affinity (HSP72-NBD [1]): no reversible binding affinity | time dependence of App. Ki / probe displacement curve (HSP72-NBD [1]; WT HSP72-NBD): no time-dependent displacement

Nc1ncnc2c1ncn2[C@@H]1O[C@H](COP(=O)(O)OP(=O)(O)OP(=O)(O)O)[C@@H](O)[C@H]1O [ATP]
Km (HSP72): ~1 µM

C=CC(=O)OCCC[C@H]1O[C@@H](n2c(NCc3ccc(Cl)cc3)nc3c(N)ncnc32)[C@H](O)[C@@H]1O [Compound 2, 3-((2R,3S,4R,5R)-5-(6-amino-8-((4-chlorobenzyl)amino)-9H-purin-9-yl)-3,4-dihydroxytetrahydrofuran-2-yl)propyl acrylate]
kinact (HSP72-NBD [2]; from kinact/KI and initial Ki, assuming KI = Ki): 1.6e-05 s⁻¹ | t1/2^inf (HSP72-NBD [2]; ln 2/kinact): 12 h | Ki (HSP72-NBD [1]; Time 19 h): 7.2 µM | Ki (HSP72-NBD [1]; Time 46 h): 3.7 µM | Ki (HSP72-NBD [1]; Time […] (printed 0.08 3)): 17 µM | exposure required for complete formation of the covalent complex by intact-protein MS (HSP72-NBD [4]): > 24 h
